Some test systems named below: IGROV1 ovarian; MALME-3M melanoma; COLO 205 colon; MDA-MB-231 breast; TK-10 renal; SF-268 CNS; UACC-62 melanoma; SF-539 CNS; MDA-MB-435; CAKI-1 renal.
What all share (experiment): NCI-60 cell line screen, 48 h

Several values for one entry are separate records, joined by “and”; a condition that tells them apart may be missing. Equal values may be shown once.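 Results reflect a 48-hour exposure of cells in 96-well plates to compound at five concentrations. GI50 is the concentration that inhibits growth by half. TGI denotes the concentration required for complete inhibition of growth.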

On to `Nc1cc(C(F)(F)F)c(-c2cc(N3CCOCC3)nc(N3CCOCC3)n2)cn1`, for which the GI50 with IGROV1 ovarian is 0.227 µM and 0.28 µM; in the assay on MALME-3M melanoma, 0.325 µM and 0.369 µM; in the assay on COLO 205 colon, 0.629 µM and 1.25 µM; in the assay on MDA-MB-231 breast, 1.26 µM and 2.06 µM; in the assay with TK-10 renal, 0.303 µM and 0.338 µM; in the assay with SF-268 CNS, 0.925 µM and 1.42 µM. For the same molecule, the GI50 in the assay on UACC-62 melanoma was 0.318 µM and 0.375 µM; with SF-539 CNS, 0.976 µM and 1.39 µM; in the assay on MDA-MB-435 it was 0.275 µM and 0.29 µM; in the assay with CAKI-1 renal, 0.441 µM and 0.806 µM. Besides, the TGI with MALME-3M melanoma was 2.53 µM and 4.95 µM; in the assay with COLO 205 colon, 2.8 µM and 3.42 µM; with MDA-MB-231 breast, > 8.48 µM and 11.9 µM; in the assay with TK-10 renal, 2.75 µM and 2.15 µM; in the assay on SF-268 CNS, > 9.53 µM and 7.1 µM; in the assay on UACC-62 melanoma, 1.99 µM and 2.92 µM. The TGI in the assay with SF-539 CNS was 3.42 µM and 4.35 µM; with MDA-MB-435 it was 1.03 µM and 1.32 µM; in the assay with CAKI-1 renal it was 4.05 µM and > 24.3 µM.
For `COC1=C(OC)C(=O)C(Sc2ccc3ccccc3c2)=CC1=O`, the TGI in the assay with IGROV1 ovarian is 39 µM; in the assay with MALME-3M melanoma it was 28.4 µM; in the assay with COLO 205 colon, 23.7 µM; with MDA-MB-231 breast, 32.9 µM; with TK-10 renal it was 27 µM; in the assay on SF-268 CNS, 36.3 µM. Also, the TGI was 20.5 µM in the assay with UACC-62 melanoma, more than 57.7 µM in the assay with SF-539 CNS, 29.8 µM with MDA-MB-435 and 32.8 µM in the assay with CAKI-1 renal.
Regarding `O=C(O)c1c(Cl)c(Cl)c(Cl)c(Cl)c1C(=O)Nc1ccc2cn[nH]c2c1`, the TGI in the assay on IGROV1 ovarian, in the assay with MALME-3M melanoma, with COLO 205 colon, in the assay with MDA-MB-231 breast, in the assay with TK-10 renal and in the assay on SF-268 CNS was more than 100 µM in each case. For the same molecule, the TGI in the assay on UACC-62 melanoma, in the assay with SF-539 CNS, in the assay with MDA-MB-435 and with CAKI-1 renal was more than 100 µM each time.
`COc1ccc2nc3cc([N+](=O)[O-])ccc3c(NNc3ccccc3)c2c1`: the GI50 with IGROV1 ovarian was 15.4 µM; with COLO 205 colon, 17.1 µM; in the assay with MDA-MB-231 breast, 5.69 µM; with TK-10 renal, 12.1 µM; in the assay with SF-268 CNS, 7.35 µM; in the assay on UACC-62 melanoma, 5.93 µM. Moreover, the GI50 in the assay on SF-539 CNS was 11.7 µM; in the assay on MDA-MB-435 it was 13.4 µM. Also, the TGI in the assay with IGROV1 ovarian is 68.6 µM and 27.9 µM; in the assay with MALME-3M melanoma, 43.4 µM; with COLO 205 colon, 37.5 µM and 29.5 µM; in the assay on MDA-MB-231 breast, 30 µM and 54.2 µM; in the assay on TK-10 renal, 30 µM and > 100 µM; in the assay on SF-268 CNS, 30.8 µM and > 100 µM. For the same molecule, the TGI with UACC-62 melanoma was 22.8 µM and 25.1 µM; with SF-539 CNS it was 26.4 µM and 75 µM; in the assay with MDA-MB-435, 35.3 µM and > 100 µM; with CAKI-1 renal, 35.1 µM and > 100 µM.
For the molecule `O=C(/C=C/C(Cl)(Cl)Cl)Nc1ccc(Cl)cc1`, the TGI in the assay with IGROV1 ovarian was 1.82 µM; in the assay on MALME-3M melanoma, 18.9 µM; with COLO 205 colon, 5.16 µM; in the assay with MDA-MB-231 breast, 6.15 µM; in the assay with TK-10 renal it was 5.73 µM; in the assay with SF-268 CNS, 9.82 µM. The TGI was 21.2 µM in the assay with UACC-62 melanoma, 3.97 µM in the assay on SF-539 CNS, 12.4 µM in the assay with MDA-MB-435 and 2.02 µM in the assay on CAKI-1 renal.
On to `O=Cc1c(-c2ccccc2)[nH]c2ccccc2c1=O`, for which the TGI is more than 100 µM with IGROV1 ovarian; more than 100 µM in the assay on MALME-3M melanoma; 82.3 µM in the assay on COLO 205 colon; more than 100 µM in the assay on MDA-MB-231 breast; more than 100 µM with TK-10 renal; more than 100 µM with SF-268 CNS. Further, the TGI was more than 100 µM in the assay with UACC-62 melanoma, more than 100 µM in the assay on SF-539 CNS, 88.1 µM with MDA-MB-435 and more than 100 µM in the assay on CAKI-1 renal.
With `N#Cc1ccccc1C#C/C=C\C#CC#C/C=C\C#Cc1ccccc1C#N`, the GI50 in the assay on IGROV1 ovarian was 15 µM; in the assay on MALME-3M melanoma it was 14.6 µM; in the assay with COLO 205 colon it was 7.33 µM; in the assay on MDA-MB-231 breast it was 8.76 µM; in the assay with TK-10 renal, 23.9 µM; in the assay with SF-268 CNS, 12 µM. For the same molecule, the GI50 with UACC-62 melanoma is 14.7 µM; with SF-539 CNS, 22.6 µM; in the assay on MDA-MB-435, 8.49 µM; in the assay with CAKI-1 renal it was 20.1 µM. Also, the TGI with IGROV1 ovarian was 91.6 µM; in the assay with MALME-3M melanoma, 29.8 µM; with COLO 205 colon, 21.1 µM; with MDA-MB-231 breast, 35.4 µM; in the assay on TK-10 renal, 83 µM; in the assay with SF-268 CNS it was more than 100 µM. For the same molecule, the TGI is 40.6 µM with UACC-62 melanoma, more than 100 µM in the assay with SF-539 CNS, 26.4 µM in the assay on MDA-MB-435 and 73.4 µM in the assay on CAKI-1 renal.
Regarding `C[C@@H](NC(=O)c1ncnc(N)c1Cl)c1ncc(C(=O)Nc2cc(C(F)(F)F)c(Cl)cn2)s1`, the GI50 was 10.8 µM in the assay on IGROV1 ovarian; 0.135 µM with MALME-3M melanoma; 0.616 µM in the assay on COLO 205 colon; 5.37 µM in the assay on MDA-MB-231 breast; 19.6 µM in the assay on TK-10 renal; 26.8 µM in the assay on SF-268 CNS. Besides, the GI50 in the assay with UACC-62 melanoma was 0.402 µM; in the assay with SF-539 CNS, 20.3 µM; in the assay with MDA-MB-435, 2.27 µM; with CAKI-1 renal it was 25.4 µM. Further, the TGI in the assay on IGROV1 ovarian is 39.6 µM; with MALME-3M melanoma it was 0.624 µM; in the assay with COLO 205 colon, 24.3 µM; in the assay on MDA-MB-231 breast it was 41.5 µM; in the assay with TK-10 renal it was 46.6 µM; in the assay with SF-268 CNS, more than 71.6 µM. For the same molecule, the TGI in the assay with UACC-62 melanoma was 8.7 µM; in the assay with SF-539 CNS it was more than 78.4 µM; in the assay with MDA-MB-435, 34.3 µM; in the assay on CAKI-1 renal, 71.6 µM.
As for `C/C(=N/O)c1ccc2c(c1)/C(=N/O)c1ccccc1-2`, the GI50 is 22.3 µM with IGROV1 ovarian; 21.9 µM in the assay with MALME-3M melanoma; 18.1 µM with COLO 205 colon; 23 µM with MDA-MB-231 breast; 26.7 µM in the assay with TK-10 renal; 32.2 µM in the assay on SF-268 CNS. Further, the GI50 with UACC-62 melanoma is 18.3 µM; in the assay with SF-539 CNS, 21.6 µM; with MDA-MB-435, 18.7 µM; in the assay with CAKI-1 renal, 20.3 µM. Further, the TGI is 41.1 µM with IGROV1 ovarian; 46 µM in the assay on MALME-3M melanoma; 35.6 µM in the assay on COLO 205 colon; 56.5 µM with MDA-MB-231 breast; 67.2 µM with TK-10 renal; more than 100 µM in the assay with SF-268 CNS. In addition, the TGI in the assay with UACC-62 melanoma was determined as 37.5 µM; in the assay with SF-539 CNS, 50 µM; with MDA-MB-435, 39.4 µM; in the assay on CAKI-1 renal it was 44.8 µM.
Turning to `Cc1ccc(-c2nc(N3CCNCC3)c3oc(-c4ccccc4)nc3n2)cc1`, the GI50 is 1.87 µM in the assay on IGROV1 ovarian; 2.07 µM in the assay with MALME-3M melanoma; 1.81 µM in the assay with COLO 205 colon; 1.62 µM in the assay on MDA-MB-231 breast; 1.68 µM in the assay with TK-10 renal; 2.07 µM with SF-268 CNS. The GI50 in the assay on UACC-62 melanoma is 1.74 µM; with SF-539 CNS it was 1.78 µM; in the assay on MDA-MB-435, 1.76 µM; in the assay on CAKI-1 renal, 1.73 µM. Moreover, the TGI is 3.64 µM in the assay on IGROV1 ovarian; 3.75 µM with MALME-3M melanoma; 3.53 µM with COLO 205 colon; 3.06 µM in the assay on MDA-MB-231 breast; 3.09 µM in the assay on TK-10 renal; 5.07 µM with SF-268 CNS. Besides, the TGI with UACC-62 melanoma stood at 3.19 µM; in the assay with SF-539 CNS, 3.28 µM; in the assay with MDA-MB-435 it was 3.22 µM; in the assay with CAKI-1 renal, 3.26 µM.
On to `CCN(CC)c1ccc2nc3c4ccccc4c(=O)cc-3n(-c3ccccc3)c2c1`, for which the GI50 is 0.62 µM in the assay with IGROV1 ovarian; 1.4 µM in the assay with MALME-3M melanoma; 0.353 µM in the assay on COLO 205 colon; 2.22 µM in the assay with MDA-MB-231 breast; 1.77 µM with TK-10 renal; 2.85 µM with SF-268 CNS. Further, the GI50 is 1.36 µM in the assay with UACC-62 melanoma, 2.49 µM with SF-539 CNS, 0.899 µM in the assay on MDA-MB-435 and 1.32 µM in the assay with CAKI-1 renal. Also, the TGI with IGROV1 ovarian was 2.92 µM; with MALME-3M melanoma, 3.56 µM; with COLO 205 colon, 1.59 µM; in the assay with MDA-MB-231 breast it was 8.2 µM; with TK-10 renal it was 5.63 µM; in the assay with SF-268 CNS, 12.9 µM. Besides, the TGI in the assay on UACC-62 melanoma came out at 4.31 µM; in the assay with SF-539 CNS, 6.8 µM; with MDA-MB-435, 3.46 µM; with CAKI-1 renal, 4.52 µM.
Consider `O=C1C=CC(=Nc2cccc3c(N=C4C=CC(=O)O4)cccc23)O1`, for which the TGI is more than 100 µM with IGROV1 ovarian; 42.8 µM in the assay with MALME-3M melanoma; 40.4 µM in the assay on COLO 205 colon; more than 100 µM with MDA-MB-231 breast; 33.3 µM in the assay on TK-10 renal; more than 100 µM with SF-268 CNS. Besides, the TGI is more than 100 µM in the assay with UACC-62 melanoma, 36.1 µM with SF-539 CNS, more than 100 µM in the assay on MDA-MB-435 and 35.5 µM with CAKI-1 renal.
Regarding `CC(C)(C)NC(=O)[C@H]1CC[C@H]2[C@@H]3CC[C@H]4NC(=O)C=C[C@]4(C)[C@H]3CC[C@]12C`, the GI50 with IGROV1 ovarian is more than 100 µM; in the assay on MALME-3M melanoma, 74.5 µM and > 100 µM; with COLO 205 colon it was more than 100 µM; in the assay with MDA-MB-231 breast, more than 100 µM; in the assay on TK-10 renal it was more than 100 µM; in the assay with SF-268 CNS it was more than 100 µM. In addition, the GI50 was more than 100 µM in the assay with UACC-62 melanoma; more than 100 µM in the assay with SF-539 CNS; more than 100 µM in the assay on MDA-MB-435; 77.9 µM and > 100 µM in the assay on CAKI-1 renal. For the same molecule, the TGI with IGROV1 ovarian, in the assay with MALME-3M melanoma, in the assay with COLO 205 colon, in the assay with MDA-MB-231 breast, in the assay with TK-10 renal and in the assay on SF-268 CNS was more than 100 µM in each case. The TGI in the assay on UACC-62 melanoma, in the assay on SF-539 CNS, with MDA-MB-435 and with CAKI-1 renal was more than 100 µM in each case.

For the origin of these results see PubChem BioAssay (NCI).
